Test results published in ChEMBL document CHEMBL1134523, “Isomerization of (Z,Z) to (E,E)1-bromo-2,5-bis-(3-hydroxycarbonyl-4-hydroxy)styrylbenzene in strong base: probes for amyloid plaques in the brain” (J Med Chem, 2001).

Target: Amyloid-beta precursor protein (Homo sapiens, UniProt P05067)
Test: Inhibitory activity against binding of [125I]IMSB to amyloid beta in brain
Assay type: tissue-based

Sequence of Amyloid-beta precursor protein (P05067 whole entry): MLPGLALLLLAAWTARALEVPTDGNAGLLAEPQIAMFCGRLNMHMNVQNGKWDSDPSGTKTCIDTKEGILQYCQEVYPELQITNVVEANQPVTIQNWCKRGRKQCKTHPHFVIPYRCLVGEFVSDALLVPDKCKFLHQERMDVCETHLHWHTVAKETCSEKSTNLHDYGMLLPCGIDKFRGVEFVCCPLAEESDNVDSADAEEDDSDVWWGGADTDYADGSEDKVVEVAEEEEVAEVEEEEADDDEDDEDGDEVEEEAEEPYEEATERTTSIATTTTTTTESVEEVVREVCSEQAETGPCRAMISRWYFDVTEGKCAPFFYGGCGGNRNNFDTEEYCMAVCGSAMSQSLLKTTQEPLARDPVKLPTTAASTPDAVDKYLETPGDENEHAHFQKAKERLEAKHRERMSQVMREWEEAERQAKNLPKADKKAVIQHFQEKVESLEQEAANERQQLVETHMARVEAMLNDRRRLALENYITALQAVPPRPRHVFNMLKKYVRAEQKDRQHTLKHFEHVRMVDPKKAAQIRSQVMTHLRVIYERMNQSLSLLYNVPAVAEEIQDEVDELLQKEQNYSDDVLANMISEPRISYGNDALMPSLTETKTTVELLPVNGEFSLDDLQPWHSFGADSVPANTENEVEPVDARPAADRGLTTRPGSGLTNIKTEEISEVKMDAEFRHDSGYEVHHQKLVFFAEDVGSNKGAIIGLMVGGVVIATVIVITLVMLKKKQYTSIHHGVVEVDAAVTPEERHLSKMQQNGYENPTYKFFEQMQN

Work on `O=C(O)c1cc(/C=C\c2ccc(/C=C/c3ccc(O)c(C(=O)O)c3)cc2Br)ccc1O` yielded a Ki of 0.19 nM.
Work on `O=C(O)c1cc(/C=C\c2ccc(/C=C/c3ccc(O)c(C(=O)O)c3)c(Br)c2)ccc1O` yielded a Ki of 0.27 nM.
`O=C(O)c1cc(/C=C/c2ccc(/C=C/c3ccc(O)c(C(=O)O)c3)c(Br)c2)ccc1O` showed a Ki of 0.11 nM.
`O=C(O)c1cc(/C=C\c2ccc(/C=C\c3ccc(O)c(C(=O)O)c3)c(Br)c2)ccc1O` was tested, and the Ki was 0.13 nM.
Work on `O=C(O)c1ccccc1O` [SALICYLIC ACID] yielded a Ki greater than 1800 nM.
